Assay results reported in patent US20090124587A1, “METHODS FOR TREATING CANCER USING 17alpha-HYDROXYLASE/C17,20-LYASE INHIBITORS” (priority 2007, published 2009).
Like-named read-outs stand apart in the source and are kept apart here.

Experiment: Pharmacokinetic study of abiraterone in hormone refractory prostate cancer patients, oral doses 250-2000 mg/day, fasted
Type: in vivo, human
Conditions: mean, fasted, plasma; for AUC(0-t) / Cmax / Tmax / AUC(0-inf): male, human; for AUC(0-inf): read-out: AUCINF_obs
Experimental: A group of 15 subjects was divided into five groups. Members of each group were orally administered doses of 250 mg/day, 500 mg/day, 750 mg/day, 1000 mg/day or 2000 mg/day once a day. Before administration the subjects had fasted. PK blood samples were measured at 1, 2, 4, 6, 8, 24, and 72 hours post dose.
To measure the amount of abiraterone and abiraterone acetate in the samples, these compounds were extracted from 100 uL human plasma using solid phase extraction (SPE) with cation mixed-mode polymer cartridges. Extracts were evaporated to dryness before reconstitution and analysis. Chromatography was carried out using a Luna™ C5 column (5 μm, 50 mm×2.1 mm id) with a gradient mobile phase consisting of 10 mM ammonium acetate and 2% propan-2-ol in acetonitrile. The flow rate was 0.2 mL/min and the run time 10.5 minutes. Abiraterone and abiraterone acetate were ionized using the electrospray interface in positive ion mode. Detection of analytes was via tandem mass spectrometry (MS/MS) in the multiple reaction monitoring (MRM) mode.
PK modeling was conducted using a non-compartmental model, extra vascular input for plasma with WinNonLin Software®. Pharmacokinetic parameters estimated in the model include: […]

[1] = 250 mg/day abiraterone acetate oral
[2] = 500 mg/day abiraterone acetate oral
[3] = 750 mg/day abiraterone acetate oral
[4] = 1000 mg/day abiraterone acetate oral
[5] = 2000 mg/day abiraterone acetate oral

With `C[C@]12CC[C@H](O)CC1=CC[C@@H]1[C@@H]2CC[C@]2(C)C(c3cccnc3)=CC[C@@H]12` [Abiraterone] the AUC(0-t) [1] was 1.25 µM·h, the Cmax [1] was 219 nM and the Tmax [1] was 2.05 h. It also gave an AUC(0-inf) [1] of 1.37 µM·h, an AUC(0-t) [2] of 1.33 µM·h and a Cmax [2] of 284 nM. The Tmax [2] was 2.59 h, the AUC(0-inf) [2] was 1.45 µM·h and the AUC(0-t) [3] was 4.29 µM·h. It also gave a Cmax [3] of 1030 nM, a Tmax [3] of 1.71 h and an AUC(0-inf) [3] of 4.54 µM·h. The AUC(0-t) [4] was 5.03 µM·h, the Cmax [4] was 659 nM and the Tmax [4] was 3.09 h. It also gave an AUC(0-inf) [4] of 5.32 µM·h, an AUC(0-t) [5] of 4.75 µM·h and a Cmax [5] of 531 nM. It also gave a Tmax [5] of 2.67 h, an AUC(0-inf) [5] of 4.98 µM·h and a Cl_F_obs [1] of 567.2 L/h. It also gave an HL_Lambda_z [1] of 11.6 h, a Vz_F_obs [1] of 10772.0 L and a Cl_F_obs [2] of 1347.2 L/h. The HL_Lambda_z [2] was 9.5 h, the Vz_F_obs [2] was 14032.5 L and the Cl_F_obs [3] was 494 L/h. For the same compound, the HL_Lambda_z [3] was 10.8 h, the Vz_F_obs [3] was 8340 L and the Cl_F_obs [4] was 861.6 L/h. For the same compound, the HL_Lambda_z [4] was 9.9 h, the Vz_F_obs [4] was 10125.5 L and the Cl_F_obs [5] was 1280.3 L/h. The HL_Lambda_z [5] was 12.0 h and the Vz_F_obs [5] was 21598.8 L.
